According to patent publication US9708314B2, “Heterocyclic amide compound” (NISSAN CHEMICAL INDUSTRIES, LTD., priority 2013, dated 2017):

Columns and labels:
Format in all cases: in vivo
[1] = system: Echinochloa oryzacola Vasing.; test: Test Example 2: herbicidal activity, application during weed generation in submerged conditions; conditions: Eighteenth Table; application herbicide amount 320 g/ha
Procedure, shortened: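 Scored three weeks post-application on a 0–5 scale (5: ≥90% herbicidal ratio, almost withered; 0: ≤5%). Plants raised from mixed-sown seed in submerged alluvial soil (4 cm water), 25–30 °C greenhouse; water-diluted emulsion applied onto water surface at one- to two-leaf stage, dose in g/ha.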

[2] = system: Avena fatua; test: Test Example 4: herbicidal effect by application to foliage (diluvial soil, plastic box); conditions: for I: herbicidal effect on Avena fatua: application to foliage, application herbicide amount 320 g/ha; for I (Avena fatua) herbicidal effect grade: foliage application
Procedure, shortened: (§1)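 Seeds sown in sterilized diluvial soil, covered ~1.5 cm, grown 14 days in greenhouse at 25° C. to 30° C. Emulsion formulation diluted in water to set rate (g/ha) and sprayed onto stems and leaves. Effect scored visually 3 weeks later on 0–5 scale (5 = ≥90% herbicidal ratio, 0 = ≤5%).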

[3] = system: Echinochloa crus-galli var. crus-galli; test: as above; conditions: for H: herbicidal effect on Echinochloa crus-galli var. crus-galli: application to foliage, application herbicide amount 320 g/ha; for H (Echinochloa crus-galli var. crus-galli) herbicidal effect grade: foliage application
Procedure, shortened: as §1

[4] = system: Galium spurium; test: as above; conditions: for Q: herbicidal effect on Galium spurium: application to foliage, application herbicide amount 320 g/ha; for Q (Galium spurium) herbicidal effect grade: foliage application
Procedure, shortened: as §1

[5] = system: Lolium multiflorum Lam.; test: as above; conditions: for K: herbicidal effect on Lolium multiflorum Lam.: application to foliage, application herbicide amount 320 g/ha; for K (Lolium multiflorum Lam.) herbicidal effect grade: foliage application
Procedure, shortened: as §1

[6] = system: transplanted Oryza sativa; test: Test Example 1: effect on crop, application before weed generation in submerged conditions; conditions: Application herbicide amount 320 g/ha; Seventeenth Table
Procedure, shortened: (§2)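 Pre-emergence water-surface application under 4 cm flooding, same day as sowing, with rice transplanted at 2.5 leaf stage. Dose given as g/ha. Plants grown at 25° C. to 30° C. and rated three weeks later on a 0 (≤5%) to 5 (≥90%) herbicidal-ratio scale.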

[7] = system: Echinochloa oryzacola Vasing.; test: Test Example 1: herbicidal activity, application before weed generation in submerged conditions; conditions: Application herbicide amount 320 g/ha; Seventeenth Table
Procedure, shortened: as §2

[8] = system: Monochoria vaginalis; test: as above; conditions: Application herbicide amount 320 g/ha; Seventeenth Table
Procedure, shortened: as §2

[9] = system: Scirpus juncoides; test: as above; conditions: Application herbicide amount 320 g/ha; Seventeenth Table
Procedure, shortened: as §2

[10] = Application herbicide amount 320 g/ha

SMILES	A (Echinochloa oryzicola Vasing.) herbicidal ratio grade [1]	I: herbicidal effect on Avena fatua [2]	H: herbicidal effect on Echinochloa crus-galli var. crus-galli [3]	Q: herbicidal effect on Galium spurium [4]	K: herbicidal effect on Lolium multiflorum Lam. [5]	a: transplanted Oryza sativa (effect on crop grade) [6]	A: Echinochloa oryzicola Vasing. (herbicidal effect grade) [7]	C: Monochoria vaginalis (herbicidal effect grade) [8]	B: Scirpus juncoides (herbicidal effect grade) [9]	I [2, 10]	H [3, 10]	Q [4, 10]	K [5, 10]	I (Avena fatua) herbicidal effect grade [2, 10]	H (Echinochloa crus-galli var. crus-galli) herbicidal effect grade [3, 10]	Q (Galium spurium) herbicidal effect grade [4, 10]	K (Lolium multiflorum Lam.) herbicidal effect grade [5, 10]
COc1ccc(N(C)c2nnc3c(C(=O)Nc4nnc(C)o4)ccc(C(F)(F)F)n23)cc1 [1-165]	2 (Herbicidal ratio of 20% or more and less than 40%)	0 (Herbicidal ratio of 5% or less (almost no effect))	4 (Herbicidal ratio of 70% or more and less than 90%)	2 (Herbicidal ratio of 20% or more and less than 40%)	0 (Herbicidal ratio of 5% or less (almost no effect))	0 (Herbicidal ratio of 5% or less (almost no effect))	4 (Herbicidal ratio of 70% or more and less than 90%)	4 (Herbicidal ratio of 70% or more and less than 90%)	3 (Herbicidal ratio of 40% or more and less than 70%)								
CN(C)c1nnc2c(C(=O)Nc3nnco3)ccc(C(F)(F)F)n12 [1-103]	4 (Herbicidal ratio of 70% or more and less than 90%)					3 (Herbicidal ratio of 40% or more and less than 70%)	5 (Herbicidal ratio of 90% or more (almost completely withered))	4 (Herbicidal ratio of 70% or more and less than 90%)	4 (Herbicidal ratio of 70% or more and less than 90%)	4 (Herbicidal ratio of 70% or more and less than 90%)	5 (Herbicidal ratio of 90% or more (almost completely withered))	4 (Herbicidal ratio of 70% or more and less than 90%)	3 (Herbicidal ratio of 40% or more and less than 70%)				
Cn1nnnc1NC(=O)c1ccc(C(F)(F)F)n2c(C3CCOC3)nnc12 (stereo not drawn) [2-022]	5 (Herbicidal ratio of 90% or more (almost completely withered))	4 (Herbicidal ratio of 70% or more and less than 90%)	5 (Herbicidal ratio of 90% or more (almost completely withered))	4 (Herbicidal ratio of 70% or more and less than 90%)	3 (Herbicidal ratio of 40% or more and less than 70%)	5 (Herbicidal ratio of 90% or more (almost completely withered))	5 (Herbicidal ratio of 90% or more (almost completely withered))	5 (Herbicidal ratio of 90% or more (almost completely withered))	5 (Herbicidal ratio of 90% or more (almost completely withered))								
COCCN(C)c1nnc2c(C(=O)Nc3nnco3)ccc(C(F)(F)F)n12 [1-121]	4 (Herbicidal ratio of 70% or more and less than 90%)					3 (Herbicidal ratio of 40% or more and less than 70%)	5 (Herbicidal ratio of 90% or more (almost completely withered))	4 (Herbicidal ratio of 70% or more and less than 90%)	4 (Herbicidal ratio of 70% or more and less than 90%)					3 (Herbicidal ratio of 40% or more and less than 70%)	5 (Herbicidal ratio of 90% or more (almost completely withered))	3 (Herbicidal ratio of 40% or more and less than 70%)	3 (Herbicidal ratio of 40% or more and less than 70%)
CCSc1nnc2c(C(=O)Nc3nnco3)ccc(C(F)(F)F)n12 [1-106]	5 (Herbicidal ratio of 90% or more (almost completely withered))					1 (Herbicidal ratio of 5% or more and less than 20%)	5 (Herbicidal ratio of 90% or more (almost completely withered))	4 (Herbicidal ratio of 70% or more and less than 90%)	5 (Herbicidal ratio of 90% or more (almost completely withered))					4 (Herbicidal ratio of 70% or more and less than 90%)	5 (Herbicidal ratio of 90% or more (almost completely withered))	4 (Herbicidal ratio of 70% or more and less than 90%)	3 (Herbicidal ratio of 40% or more and less than 70%)
Cn1nnnc1NC(=O)c1ccc(C(F)(F)F)n2c(Cl)nnc12 [2-008]	3 (Herbicidal ratio of 40% or more and less than 70%)	3 (Herbicidal ratio of 40% or more and less than 70%)	4 (Herbicidal ratio of 70% or more and less than 90%)	3 (Herbicidal ratio of 40% or more and less than 70%)	2 (Herbicidal ratio of 20% or more and less than 40%)	1 (Herbicidal ratio of 5% or more and less than 20%)	4 (Herbicidal ratio of 70% or more and less than 90%)	4 (Herbicidal ratio of 70% or more and less than 90%)	4 (Herbicidal ratio of 70% or more and less than 90%)								
Cn1nnnc1NC(=O)c1ccc(C(F)(F)F)n2c(COCC(F)(F)F)nnc12 [2-015]	4 (Herbicidal ratio of 70% or more and less than 90%)	2 (Herbicidal ratio of 20% or more and less than 40%)	5 (Herbicidal ratio of 90% or more (almost completely withered))	3 (Herbicidal ratio of 40% or more and less than 70%)	2 (Herbicidal ratio of 20% or more and less than 40%)	1 (Herbicidal ratio of 5% or more and less than 20%)	5 (Herbicidal ratio of 90% or more (almost completely withered))	5 (Herbicidal ratio of 90% or more (almost completely withered))	5 (Herbicidal ratio of 90% or more (almost completely withered))								
O=C(Nc1nnco1)c1ccc(C(F)(F)F)n2c(-c3ccc(F)cc3)nnc12 [1-147]	4 (Herbicidal ratio of 70% or more and less than 90%)					2 (Herbicidal ratio of 20% or more and less than 40%)	5 (Herbicidal ratio of 90% or more (almost completely withered))	5 (Herbicidal ratio of 90% or more (almost completely withered))	5 (Herbicidal ratio of 90% or more (almost completely withered))					3 (Herbicidal ratio of 40% or more and less than 70%)	4 (Herbicidal ratio of 70% or more and less than 90%)	3 (Herbicidal ratio of 40% or more and less than 70%)	3 (Herbicidal ratio of 40% or more and less than 70%)
Cc1nnc(NC(=O)c2ccc(C(F)(F)F)n3c(N(C)C4CCCCC4)nnc23)o1 [1-133]	2 (Herbicidal ratio of 20% or more and less than 40%)					0 (Herbicidal ratio of 5% or less (almost no effect))	5 (Herbicidal ratio of 90% or more (almost completely withered))	4 (Herbicidal ratio of 70% or more and less than 90%)	3 (Herbicidal ratio of 40% or more and less than 70%)					0 (Herbicidal ratio of 5% or less (almost no effect))	4 (Herbicidal ratio of 70% or more and less than 90%)	1 (Herbicidal ratio of 5% or more and less than 20%)	0 (Herbicidal ratio of 5% or less (almost no effect))
